Source: patent US8193372B2, “Phosphothiophene and phosphothiazole HCV polymerase inhibitors” (Idenix Pharmaceuticals, Inc., priority 2009, dated 2012)

Assays:
[1] = Cytotoxicity (CC50) reported with the HCV replicon ELISA assay; conditions: human
[2] = tested on: HCV Con1 subgenomic replicon of genotype 1b (GS4.1 cells); experiment: microbe, parasite or virus in culture; format: cell-based, HCV genotype 1b; conditions: Hepatitis C virus; for EC50: 72 h
in vitro = conditions: human

Row | Structure (SMILES) | CC50 at 72 hr [1] | IC50 [2] | EC50 [2] | CC50 (in vitro)
1 | COC1CCC(OP(=O)(Nc2cc(-c3ccc(Cl)cc3)sc2C(=O)O)c2ccc(C)cc2C)CC1 (stereo not drawn) [Compound 95] | > 8.3 µM | 0.1 to 8.3 µM | 0.1 to 8.3 µM | –
2 | Cc1ccc(P(=O)(Nc2cc(-c3ccc(Cl)cc3)sc2C(=O)O)OCc2cc3ccccc3o2)c(C)c1 (stereo not drawn) [Compound 93] | > 8.3 µM | 0.1 to 8.3 µM | 0.1 to 8.3 µM | –
3 | Cc1ccc(P(=O)(Nc2cc(-c3ccc(Cl)cc3)sc2C(=O)O)OCCC(C)C)c(C)c1 (stereo not drawn) [Compound 81] | > 8.3 µM | 0.1 to 8.3 µM | 0.1 to 8.3 µM | –
4 | Cc1ccc(P(=O)(Nc2cc(-c3ccc(Cl)cc3)sc2C(=O)O)OC2CCOC2)c(C)c1 (stereo not drawn) [Compound 94] | > 8.3 µM | 0.1 to 8.3 µM | 0.1 to 8.3 µM | –
5 | Cc1ccc(P(=O)(Nc2cc(-c3ccc(Cl)cc3)sc2C(=O)O)OC2CCOCC2)c(C)c1 (stereo not drawn) [Compound 135] | > 8.3 µM | < 0.1 µM | 0.1 to 8.3 µM | –
6 | Cc1ccc(P(=O)(Nc2cc(-c3ccc(Cl)cc3)sc2C(=O)O)OCc2ccccc2)c(C)c1 (stereo not drawn) [Compound 107] | > 8.3 µM | – | 0.1 to 8.3 µM | –
7 | Cc1ccc(P(=O)(O)Nc2cc(-c3ccc(F)cc3)sc2C(=O)O)c(C)c1 [Compound 1] | > 8.3 µM | 0.1 to 8.3 µM | > 8.3 µM | –
8 | CCCCOP(=O)(Nc1cc(-c2ccc(Cl)cc2)sc1C(=O)O)c1ccc(C)cc1C (stereo not drawn) [Compound 137] | > 8.3 µM | 0.1 to 8.3 µM | 0.1 to 8.3 µM | –
9 | COC(=O)c1sc(-c2ccc(F)cc2)cc1NP(=O)(OC(C)C)c1ccc(C)cc1C (stereo not drawn) [Compound 171] | > 8.3 µM | > 8.3 µM | > 8.3 µM | –
10 | CCOP(=O)(Cc1cc(-c2ccccc2)sc1C(=O)O)c1ccc(C)cc1C (stereo not drawn) [Compound 178] | – | 0.1 to 8.3 µM | > 8.3 µM | > 8.3 µM
11 | CCOCCOP(=O)(Nc1cc(-c2ccc(Cl)cc2)sc1C(=O)O)c1ccc(C)cc1C (stereo not drawn) [Compound 130] | > 8.3 µM | 0.1 to 8.3 µM | – | –
12 | COP(=O)(Nc1cc(I)sc1C(=O)O)c1ccc(C)cc1C (stereo not drawn) [Compound 116] | – | 0.1 to 8.3 µM | > 8.3 µM | > 8.3 µM
13 | Cc1ccc(P(=O)(Nc2cc(-c3ccc(Cl)cc3)sc2C(=O)O)OCC2CC2)c(C)c1 (stereo not drawn) [Compound 91] | > 8.3 µM | 0.1 to 8.3 µM | 0.1 to 8.3 µM | –
14 | COP(=O)(Nc1cc(-c2ccc(-c3cc4ncccn4n3)cc2)sc1C(=O)O)c1ccc(C)cc1C (stereo not drawn) [Compound 26] | – | < 0.1 µM | < 0.1 µM | > 8.3 µM
15 | COP(=O)(Cc1cc(-c2ccc(F)cc2)sc1C(=O)O)c1ccc(C)cc1C (stereo not drawn) [Compound 176] | – | 0.1 to 8.3 µM | > 8.3 µM | > 8.3 µM
16 | COC(=O)c1sc(-c2ccc(I)cc2)cc1NP(=O)(OC)c1ccc(C)cc1C (stereo not drawn) [Compound 144] | – | – | > 8.3 µM | > 8.3 µM
17 | COCCOP(=O)(Nc1cc(-c2ccc(Cl)cc2)sc1C(=O)O)c1ccc(C)cc1C (stereo not drawn) [Compound 85] | > 8.3 µM | 0.1 to 8.3 µM | 0.1 to 8.3 µM | –
18 | COC(=O)c1sc(-c2ccc(-c3cc4ncccn4n3)cc2)cc1NP(=O)(OC)c1ccc(C)cc1C (stereo not drawn) [Compound 142] | – | – | 0.1 to 8.3 µM | > 8.3 µM
19 | COP(=O)(Nc1cc(-c2ccc(-c3cccc([N+](=O)[O-])c3)cc2)sc1C(=O)O)c1ccc(C)cc1C (stereo not drawn) [Compound 120] | – | 0.1 to 8.3 µM | > 8.3 µM | > 8.3 µM
20 | Cc1ccc(P(=O)(Nc2cc(-c3ccc(Cl)cc3)sc2C(=O)O)OCC2CCOCC2)c(C)c1 (stereo not drawn) [Compound 84] | > 8.3 µM | 0.1 to 8.3 µM | 0.1 to 8.3 µM | –
21 | COP(=O)(Nc1cc(-c2ccc(C#Cc3ccccn3)cc2)sc1C(=O)O)c1ccc(C)cc1C (stereo not drawn) [Compound 143] | – | < 0.1 µM | < 0.1 µM | > 8.3 µM

Row | Structure (SMILES) | CC50 at 72 hr [1] | IC50 [2] | EC50 [2] | CC50 (in vitro)
22 | COP(=O)(Cc1cc(-c2ccccc2)sc1C(=O)O)c1ccc(C)cc1C (stereo not drawn) [Compound 177] | – | 0.1 to 8.3 µM | > 8.3 µM | > 8.3 µM
23 | CCOP(=O)(Nc1cc(-c2ccc(OCc3ccccc3)cc2)sc1C(=O)O)c1ccc(Cl)cc1Cl (stereo not drawn) [Compound 158] | – | 0.1 to 8.3 µM | 0.1 to 8.3 µM | > 8.3 µM
24 | CCOP(=O)(Nc1cc(-c2ccccc2)sc1C(=O)O)c1ccc(Cl)cc1Cl (stereo not drawn) [Compound 28, 2-Thiophenecarboxylic acid, 3-N-[(2,4-dichlorophenyl)-phosphonamidateethyl ester]-5-phenyl] | – | 0.1 to 8.3 µM | > 8.3 µM | > 8.3 µM
25 | C#CCOP(=O)(Nc1cc(-c2ccc(Cl)cc2)sc1C(=O)O)c1ccc(C)cc1C (stereo not drawn) [Compound 106] | – | 0.1 to 8.3 µM | 0.1 to 8.3 µM | > 8.3 µM
26 | CCCOP(=O)(Nc1cc(-c2ccc(Cl)cc2)sc1C(=O)O)c1ccc(C)cc1C (stereo not drawn) [Compound 87] | – | 0.1 to 8.3 µM | 0.1 to 8.3 µM | > 8.3 µM
27 | COP(=O)(Nc1cc(-c2ccc(NC(=O)c3cscn3)cc2)sc1C(=O)O)c1ccc(C)cc1C (stereo not drawn) [Compound 115] | – | < 0.1 µM | < 0.1 µM | > 8.3 µM
28 | COP(=O)(Nc1cc(-c2ccc(-c3cc4nc(C)cc(N)n4n3)cc2)sc1C(=O)O)c1ccc(C)cc1C (stereo not drawn) [Compound 100] | – | < 0.1 µM | < 0.1 µM | > 8.3 µM
29 | COP(=O)(c1ccc(C)cc1C)N(C)c1cc(-c2ccc(-c3cc4ncccn4n3)cc2)sc1C(=O)O (stereo not drawn) [Compound 138] | – | < 0.1 µM | < 0.1 µM | > 8.3 µM
30 | COP(=O)(Nc1cc(-c2ccc(N)cc2)sc1C(=O)O)c1ccc(C)cc1C (stereo not drawn) [Compound 126] | – | 0.1 to 8.3 µM | > 8.3 µM | > 8.3 µM
31 | COP(=O)(Nc1cc(-c2ccc(I)cc2)sc1C(=O)O)c1ccc(C)cc1C (stereo not drawn) [Compound 132] | – | 0.1 to 8.3 µM | – | > 8.3 µM
32 | COP(=O)(Nc1cc(-c2ccc(Cl)cc2F)sc1C(=O)O)c1ccc(C)cc1C (stereo not drawn) [Compound 79] | – | < 0.1 µM | 0.1 to 8.3 µM | > 8.3 µM
33 | COP(=O)(Nc1cc(-c2cccs2)sc1C(=O)O)c1ccc(C)cc1C (stereo not drawn) [Compound 98] | – | 0.1 to 8.3 µM | 0.1 to 8.3 µM | > 8.3 µM
34 | CCOP(=O)(Nc1cc(-c2ccc(Cl)cc2)sc1C(=O)O)C1CCC(C)CC1 (stereo not drawn) [Compound 110] | – | 0.1 to 8.3 µM | > 8.3 µM | > 8.3 µM
35 | COP(=O)(Nc1cc(-c2cccnc2)sc1C(=O)O)c1ccc(C)cc1C (stereo not drawn) [Compound 99] | – | 0.1 to 8.3 µM | > 8.3 µM | > 8.3 µM
36 | COP(=O)(Nc1cc(-c2ccc(-c3cccc4ncccc34)cc2)sc1C(=O)O)c1ccc(C)cc1C (stereo not drawn) [Compound 121] | – | < 0.1 µM | 0.1 to 8.3 µM | > 8.3 µM
37 | Cc1ccc(P(=O)(Nc2cc(-c3ccc(Cl)cc3)sc2C(=O)O)OCCC(C)(C)C)c(C)c1 (stereo not drawn) [Compound 90] | > 8.3 µM | 0.1 to 8.3 µM | 0.1 to 8.3 µM | –
38 | COP(=O)(c1ccc(C)cc1C)N(C)c1cc(-c2ccc(Cl)cc2)sc1C(=O)O (stereo not drawn) [Compound 113] | – | < 0.1 µM | 0.1 to 8.3 µM | > 8.3 µM
39 | COc1ccncc1-c1cc(NP(=O)(OC)c2ccc(C)cc2C)c(C(=O)O)s1 (stereo not drawn) [Compound 82] | – | 0.1 to 8.3 µM | 0.1 to 8.3 µM | > 8.3 µM
40 | CCOP(=O)(Nc1cc(-c2ccc(F)cc2)sc1C(=O)OC)c1ccc(Cl)cc1Cl (stereo not drawn) [Compound 170] | – | – | > 8.3 µM | > 8.3 µM
41 | COP(=O)(Nc1cc(-c2ccccc2)sc1C(=O)O)c1ccc(Cl)cc1Cl (stereo not drawn) [Compound 159] | – | 0.1 to 8.3 µM | > 8.3 µM | > 8.3 µM
